Laboratory results from patent publication US10710986B2, “PD-1/PD-L1 inhibitors” (Gilead Sciences, Inc., priority 2018, dated 2020).

Target: PD-1/PD-L1 (Homo sapiens (Human), UniProt Q9NZQ7)
Test: PD-1/PD-L1 biochemical protein-protein interaction assay (ALPHA)
Conditions: 0.3 nM His tagged PD-L1, 2.5 nM biotinylated Fc-PD-1, 60 minutes at 25° C., read-out: IC50 PD-L1-PD1
Experimental: Binding of the protein pairs is measured using a bead based Amplified Luminescent Proximity Homogeneous Assay (ALPHA) platform. Binding of each protein pair results in proximity of the donor and acceptor beads which leads to an increase in ALPHA signal. […] Assays are performed in 25 mM Hepes (pH 7.4), 150 mM NaCl, 3.4 mM EDTA, 0.005% Tween 20, and 0.01% BSA. […] After an assay reaction time of 60 minutes at 25° C., binding was measured with addition of 20 μg/mL ALPHA assay acceptor beads (anti-His coated) and 20 µg/mL ALPHA assay donor beads (streptavidin coated). IC50 values were calculated from the fit of the dose-response curves to a four-parameter equation.

PD-1/PD-L1, sequence (Q9NZQ7 19-238): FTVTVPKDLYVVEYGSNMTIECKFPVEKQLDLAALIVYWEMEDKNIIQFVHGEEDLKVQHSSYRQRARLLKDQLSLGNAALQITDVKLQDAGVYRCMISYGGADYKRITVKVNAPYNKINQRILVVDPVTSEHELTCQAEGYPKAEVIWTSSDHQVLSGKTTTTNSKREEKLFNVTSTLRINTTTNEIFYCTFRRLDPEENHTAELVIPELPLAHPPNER

IC50	SMILES
0.09 nM	COc1nc(-c2cccc(-c3cccc(-c4cnc(CNC[C@@H]5CCC(=O)N5)c(OC)n4)c3Cl)c2Cl)cnc1CNCC1CCC(C(N)=O)O1 (some centres unmarked) [compound 56]
8.78 nM	CNc1nc(-c2cccc(-c3cccc(-c4cnc(CNC[C@H]5C[C@H](O)C5)c(NC)n4)c3Cl)c2Cl)cnc1CNC[C@H]1C[C@H](O)C1 [compound 57]
6.76 nM	CNc1nc(-c2cccc(-c3cccc(-c4cnc(CN)c(NC)n4)c3Cl)c2Cl)cnc1CN [compound 58]
0.1 nM	CNc1nc(-c2cccc(-c3cccc(-c4cnc(CN5CC6(C5)CN(C(C)=O)C6)c(OC)n4)c3Cl)c2Cl)cnc1CN1CC2(C1)CN(C(C)=O)C2 [compound 59]
0.14 nM	CNc1nc(-c2cccc(-c3cccc(-c4cnc(CN5CC(O)C5)c(OC)n4)c3Cl)c2Cl)cnc1CN1CC(O)C1 [compound 60]
0.07 nM	CNc1nc(-c2cccc(-c3cccc(-c4cnc(CN5CC6(CNC(=O)C6)C5)c(OC)n4)c3Cl)c2Cl)cnc1CN1CC2(CNC(=O)C2)C1 [compound 61]
0.16 nM	CNc1nc(-c2cccc(-c3cccc(-c4cnc(CN5CC6(CCC(=O)N6)C5)c(OC)n4)c3Cl)c2Cl)cnc1CN1CC2(CCC(=O)N2)C1 [compound 62]
2.99 nM	CNc1nc(-c2cccc(-c3cccc(-c4cnc(CNC[C@@H]5CCC(=O)N5)c(OC)n4)c3Cl)c2Cl)cnc1CNC[C@@H]1CCC(=O)N1 [compound 63]
0.165 nM	CCNc1nc(-c2cccc(-c3cccc(-c4cnc(CN5CC6(C5)CN(C(C)=O)C6)c(NCC)n4)c3Cl)c2Cl)cnc1CN1CC2(C1)CN(C(C)=O)C2 [compound 65]
0.61 nM	CCNc1nc(-c2cccc(-c3cccc(-c4cnc(CN5CC(O)C5)c(NCC)n4)c3Cl)c2Cl)cnc1CN1CC(O)C1 [compound 66]
0.292 nM	CCNc1nc(-c2cccc(-c3cccc(-c4cnc(CN5CC6(CNC(=O)C6)C5)c(NCC)n4)c3Cl)c2Cl)cnc1CN1CC2(CNC(=O)C2)C1 [compound 67]
0.403 nM	CCNc1nc(-c2cccc(-c3cccc(-c4cnc(CN5CC6(CCC(=O)N6)C5)c(NCC)n4)c3Cl)c2Cl)cnc1CN1CC2(CCC(=O)N2)C1 [compound 68]
2.62 nM	CNc1nc(-c2cccc(-c3cccc(-c4cnc(CN5CC(F)C5)c(NC)n4)c3Cl)c2Cl)cnc1CN1CC(F)C1 [compound 69]
0.784 nM	CNc1nc(-c2cccc(-c3cccc(-c4cnc(CN5CCCC5)c(NC)n4)c3Cl)c2Cl)cnc1CN1CCCC1 [compound 70]
0.081 nM	CNc1nc(-c2cccc(-c3cccc(-c4cnc(CN(C)C)c(NC)n4)c3Cl)c2Cl)cnc1CN(C)C [compound 71]
0.198 nM	CNc1nc(-c2cccc(-c3cccc(-c4cnc(CN5CCC5)c(NC)n4)c3Cl)c2Cl)cnc1CN1CCC1 [compound 72]
0.37 nM	CNCc1ncc(-c2cccc(-c3cccc(-c4cnc(CN5CCC5)c(NC)n4)c3Cl)c2Cl)nc1NC [compound 73]
1.34 nM	CNCc1ncc(-c2cccc(-c3cccc(-c4cnc(CNC)c(NC)n4)c3Cl)c2Cl)nc1NC [compound 74]
0.877 nM	CNc1nc(-c2cccc(-c3cccc(-c4cnc(CN5CC(OC)C5)c(NC)n4)c3Cl)c2Cl)cnc1CN1CC(OC)C1 [compound 75]

IC50	SMILES
0.09 nM	CNc1nc(-c2cccc(-c3cccc(-c4cnc(CN5CC6(C5)CN(C(C)=O)C6)c(NC)n4)c3Cl)c2Cl)cnc1CN1CC2(C1)CN(C(C)=O)C2 [compound 76]
0.192 nM	CNc1nc(-c2cccc(-c3cccc(-c4cnc(CN5CC(O)C5)c(NC)n4)c3Cl)c2Cl)cnc1CN1CC(O)C1 [compound 77]
0.064 nM	CNc1nc(-c2cccc(-c3cccc(-c4cnc(CN5CC6(CNC(=O)C6)C5)c(NC)n4)c3Cl)c2Cl)cnc1CN1CC2(CNC(=O)C2)C1 [compound 78]
0.292 nM	CNc1nc(-c2cccc(-c3cccc(-c4cnc(CN5CC6(CCC(=O)N6)C5)c(NC)n4)c3Cl)c2Cl)cnc1CN1CC2(CCC(=O)N2)C1 [compound 79]
0.36 nM	CNc1nc(-c2cccc(-c3cccc(-c4cnc(CNC[C@@H]5CCC(=O)N5)c(NC)n4)c3Cl)c2Cl)cnc1CNC[C@@H]1CCC(=O)N1 [compound 80]
4.18 nM	OC1CN(Cc2cnc(-c3cccc(-c4cccc(-c5cnc(CN6CC(O)C6)cn5)c4Cl)c3Cl)cn2)C1 [compound 81]
0.335 nM	CCc1nc(-c2cccc(-c3cccc(-c4cnc(CN5CC(O)C5)c(CC)n4)c3Cl)c2Cl)cnc1CN1CC(O)C1 [compound 82]
0.56 nM	CCc1nc(-c2cccc(-c3cccc(-c4cnc(CN5CC6(CNC(=O)C6)C5)c(CC)n4)c3Cl)c2Cl)cnc1CN1CC2(CNC(=O)C2)C1 [compound 83]
0.189 nM	CCc1nc(-c2cccc(-c3cccc(-c4cnc(CN5CC6(CCC(=O)N6)C5)c(CC)n4)c3Cl)c2Cl)cnc1CN1CC2(CCC(=O)N2)C1 [compound 84]
0.976 nM	CCc1nc(-c2cccc(-c3cccc(-c4cnc(CNC[C@@H]5CCC(=O)N5)c(CC)n4)c3Cl)c2Cl)cnc1CNC[C@@H]1CCC(=O)N1 [compound 85]
3.05 nM	COc1nc(-c2cccc(-c3cccc(-c4cnc(CNC56CC(C5)C6)c(OC)n4)c3Cl)c2Cl)cnc1CNC12CC(C1)C2 [compound 86]
5.88 nM	COC1CN(Cc2ncc(-c3cccc(-c4cccc(-c5cnc(CN6CC(OC)C6)c(SC)n5)c4Cl)c3Cl)nc2SC)C1 [compound 87]
0.217 nM	CSc1nc(-c2cccc(-c3cccc(-c4cnc(CN5CC(O)C5)c(SC)n4)c3Cl)c2Cl)cnc1CN1CC(O)C1 [compound 88]
0.286 nM	CSc1nc(-c2cccc(-c3cccc(-c4cnc(CN5CC6(CNC(=O)C6)C5)c(SC)n4)c3Cl)c2Cl)cnc1CN1CC2(CNC(=O)C2)C1 [compound 89]
0.156 nM	CSc1nc(-c2cccc(-c3cccc(-c4cnc(CN5CC6(CCC(=O)N6)C5)c(SC)n4)c3Cl)c2Cl)cnc1CN1CC2(CCC(=O)N2)C1 [compound 90]
0.978 nM	CSc1nc(-c2cccc(-c3cccc(-c4cnc(CNC[C@@H]5CCC(=O)N5)c(SC)n4)c3Cl)c2Cl)cnc1CNC[C@@H]1CCC(=O)N1 [compound 91]
1.03 nM	COC1CN(Cc2ncc(-c3cccc(-c4cccc(-c5cnc(CN6CC(OC)C6)c(C)n5)c4Cl)c3Cl)nc2C)C1 [compound 92]
0.566 nM	Cc1nc(-c2cccc(-c3cccc(-c4cnc(CN5CC(O)C5)c(C)n4)c3Cl)c2Cl)cnc1CN1CC(O)C1 [compound 93]
0.862 nM	Cc1nc(-c2cccc(-c3cccc(-c4cnc(CN5CC6(CNC(=O)C6)C5)c(C)n4)c3Cl)c2Cl)cnc1CN1CC2(CNC(=O)C2)C1 [compound 94]

IC50	SMILES
0.233 nM	Cc1nc(-c2cccc(-c3cccc(-c4cnc(CN5CC6(CCC(=O)N6)C5)c(C)n4)c3Cl)c2Cl)cnc1CN1CC2(CCC(=O)N2)C1 [compound 95]
1.5 nM	Cc1nc(-c2cccc(-c3cccc(-c4cnc(CNC[C@@H]5CCC(=O)N5)c(C)n4)c3Cl)c2Cl)cnc1CNC[C@@H]1CCC(=O)N1 [compound 96]
0.701 nM	COC1CN(Cc2ncc(-c3cccc(-c4cccc(-c5cnc(CN6CC(OC)C6)c(N(C)C)n5)c4Cl)c3Cl)nc2N(C)C)C1 [compound 97]
0.647 nM	COC1CN(Cc2ncc(-c3cccc(-c4cccc(-c5cnc(CN6CC(OC)C6)c(N(C)C)n5)c4Cl)c3Cl)nc2Cl)C1 [compound 98]
0.407 nM	CN(C)c1nc(-c2cccc(-c3cccc(-c4cnc(CN5CC(O)C5)c(N(C)C)n4)c3Cl)c2Cl)cnc1CN1CC(O)C1 [compound 99]
0.146 nM	CN(C)c1nc(-c2cccc(-c3cccc(-c4cnc(CN5CC(O)C5)c(Cl)n4)c3Cl)c2Cl)cnc1CN1CC(O)C1 [compound 100]
0.13 nM	CN(C)c1nc(-c2cccc(-c3cccc(-c4cnc(CN5CC6(CNC(=O)C6)C5)c(N(C)C)n4)c3Cl)c2Cl)cnc1CN1CC2(CNC(=O)C2)C1 [compound 101]
0.223 nM	CN(C)c1nc(-c2cccc(-c3cccc(-c4cnc(CN5CC6(CNC(=O)C6)C5)c(Cl)n4)c3Cl)c2Cl)cnc1CN1CC2(CNC(=O)C2)C1 [compound 102]
0.071 nM	CN(C)c1nc(-c2cccc(-c3cccc(-c4cnc(CN5CC6(CCC(=O)N6)C5)c(N(C)C)n4)c3Cl)c2Cl)cnc1CN1CC2(CCC(=O)N2)C1 [compound 103]
0.077 nM	CN(C)c1nc(-c2cccc(-c3cccc(-c4cnc(CN5CC6(CCC(=O)N6)C5)c(Cl)n4)c3Cl)c2Cl)cnc1CN1CC2(CCC(=O)N2)C1 [compound 104]
0.302 nM	CN(C)c1nc(-c2cccc(-c3cccc(-c4cnc(CNC[C@@H]5CCC(=O)N5)c(N(C)C)n4)c3Cl)c2Cl)cnc1CNC[C@@H]1CCC(=O)N1 [compound 105]
0.36 nM	CN(C)c1nc(-c2cccc(-c3cccc(-c4cnc(CNC[C@@H]5CCC(=O)N5)c(Cl)n4)c3Cl)c2Cl)cnc1CNC[C@@H]1CCC(=O)N1 [compound 106]
1.54 nM	COC1CN(Cc2ncc(-c3cccc(-c4cccc(-c5cnc(CN6CC(OC)C6)c(Cl)n5)c4Cl)c3Cl)nc2Cl)C1 [compound 107]
0.474 nM	OC1CN(Cc2ncc(-c3cccc(-c4cccc(-c5cnc(CN6CC(O)C6)c(Cl)n5)c4Cl)c3Cl)nc2Cl)C1 [compound 108]
0.586 nM	O=C1CC2(CN1)CN(Cc1ncc(-c3cccc(-c4cccc(-c5cnc(CN6CC7(CNC(=O)C7)C6)c(Cl)n5)c4Cl)c3Cl)nc1Cl)C2 [compound 109]
0.327 nM	O=C1CCC2(CN(Cc3ncc(-c4cccc(-c5cccc(-c6cnc(CN7CC8(CCC(=O)N8)C7)c(Cl)n6)c5Cl)c4Cl)nc3Cl)C2)N1 [compound 110]
0.297 nM	O=C1CC[C@@H](CNCc2ncc(-c3cccc(-c4cccc(-c5cnc(CNC[C@@H]6CCC(=O)N6)c(Cl)n5)c4Cl)c3Cl)nc2Cl)N1 [compound 111]
0.076 nM	COc1nc(-c2cccc(-c3cccc(-c4cnc(CN5CC(O)C5)c(OC)n4)c3Br)c2Br)cnc1CN1CC(O)C1 [compound 112]
